Data from patent US11999727B2 (Tango Therapeutics, Inc., priority 2020, dated 2024).

What was measured:
[1] = tested on: HAP1 MTAP-intact cell line; assay: SDMA in-cell western assay, HAP1 MTAP-intact; type: cell-based; settings: Homo sapiens, HAP1, SDMA in-cell western, HAP1 MTAP-intact; read-out: MTAP HAP1 intact IC50
Procedure, shortened: (§1)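 Compounds were tested in HAP1 cells differing only in MTAP status (endogenous expression versus null). Cellular SDMA levels were then measured by in-cell western, giving an IC50 in each background.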

PRMT5 [2] = target: T1, PRMT5 (Homo sapiens, UniProt O14744); assay: PRMT5 biochemical IC50 assay with SAM as cofactor; settings: PRMT5, SAM as cofactor; read-out: SAM IC50
T1 construct: purchased Viva (custom protein)

PRMT5 [3] = target: T1, PRMT5; assay: PRMT5 biochemical IC50 assay with MTA as cofactor; settings: PRMT5, MTA as cofactor; read-out: MTA IC50
PRMT5 [4] = target: T1, PRMT5; assay: PRMT5 biochemical IC50 assay with no cofactor; settings: PRMT5, no cofactor; read-out: No Cofactor/rel IC50
Description: Table 1 indicates IC50 values (μM) against PRMT5 for exemplary compounds in the presence of SAM as cofactor, with no cofactor, and with MTA as cofactor, respectively (columns 4-6). […] Ki values can be calculated from the IC50 values as described in the Examples section. As detailed in the Examples section, for the assay performed in the presence of SAM, IC50=Ki×1.5 (Ki=IC50/1.5).

[5] = tested on: HAP1 MTAP-deleted cell line; assay: SDMA in-cell western assay, HAP1 MTAP-deleted; type: cell-based; settings: for IC50: Homo sapiens, HAP1, SDMA in-cell western, HAP1 MTAP-deleted, read-out: HAP 1 MTAP deleted IC50; for MTAP intact/deleted ratio: IC50 ratio HAP1 MTAP-intact / HAP1 MTAP-deleted, SDMA in-cell western
Procedure, shortened: as §1

[6] = tested on: HAP1 MTAP-deleted cell line; assay: Viability assay, MTAP-deleted cell line; type: cell-based; settings: Homo sapiens, HAP1, viability IC50, MTAP-deleted cell line; read-out: HAP1 MTAP deleted viability
Description: Table 1 additionally indicates IC50 values in a viability assay for the MTAP-deleted cell line (column 10), indicating the effect of treatment with compound on cell survival.

T1 sequence (O14744 whole entry): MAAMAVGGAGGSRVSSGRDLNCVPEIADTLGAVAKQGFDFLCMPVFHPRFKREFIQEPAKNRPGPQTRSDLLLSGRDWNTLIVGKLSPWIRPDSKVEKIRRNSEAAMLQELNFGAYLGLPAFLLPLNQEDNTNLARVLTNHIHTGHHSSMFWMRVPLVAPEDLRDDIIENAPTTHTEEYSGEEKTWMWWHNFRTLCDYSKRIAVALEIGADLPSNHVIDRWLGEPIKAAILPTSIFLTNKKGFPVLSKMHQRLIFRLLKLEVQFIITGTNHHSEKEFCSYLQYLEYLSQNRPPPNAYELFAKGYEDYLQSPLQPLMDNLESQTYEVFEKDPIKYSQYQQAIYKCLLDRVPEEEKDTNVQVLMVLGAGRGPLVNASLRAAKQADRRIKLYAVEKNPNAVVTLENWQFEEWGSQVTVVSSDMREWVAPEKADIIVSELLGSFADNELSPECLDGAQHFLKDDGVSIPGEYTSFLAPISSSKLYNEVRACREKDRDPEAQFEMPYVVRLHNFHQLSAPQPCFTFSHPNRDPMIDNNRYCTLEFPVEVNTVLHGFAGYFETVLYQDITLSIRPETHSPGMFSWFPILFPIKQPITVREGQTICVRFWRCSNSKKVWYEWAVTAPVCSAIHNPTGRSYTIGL
T1 sequence (Q9BQA1 whole entry partner): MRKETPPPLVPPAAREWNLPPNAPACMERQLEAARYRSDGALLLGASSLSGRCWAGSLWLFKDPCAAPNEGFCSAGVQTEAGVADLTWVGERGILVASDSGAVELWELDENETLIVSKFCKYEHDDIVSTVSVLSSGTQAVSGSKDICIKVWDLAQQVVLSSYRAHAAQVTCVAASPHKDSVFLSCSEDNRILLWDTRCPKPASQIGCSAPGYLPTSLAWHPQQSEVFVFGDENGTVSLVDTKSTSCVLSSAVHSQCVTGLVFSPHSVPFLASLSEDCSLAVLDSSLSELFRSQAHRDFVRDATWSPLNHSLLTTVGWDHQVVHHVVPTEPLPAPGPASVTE

| SMILES | IC50 [1] | IC50 (PRMT5 [2]) | IC50 (PRMT5 [3]) | IC50 (PRMT5 [4]) | IC50 [5] | MTAP intact/deleted ratio [5] | IC50 [6] |
| --- | --- | --- | --- | --- | --- | --- | --- |
| Cc1cc(NC(=O)C(=O)N2C[C@H](C)CC[C@H]2[C@@H]2CCC[C@H](O)C2)cnc1N (single isomer, unassigned) [Compound 567] | > 1000 nM | > 500 nM | > 500 nM | > 500 nM | > 1000 nM | C (an IC50 ratio of less than 3 fold) | > 10000 nM |
| Cc1cc(NC(=O)C(=O)N2C[C@@H](C)CC[C@@H]2[C@@H]2CCC[C@@H](O)C2)cnc1N (single isomer, unassigned) [Compound 568] | > 1000 nM | > 500 nM | > 500 nM | > 500 nM | > 1000 nM | C (an IC50 ratio of less than 3 fold) | > 10000 nM |
| C[C@H]1CC[C@H](c2ccc(Cl)cc2)N(C(=O)C(=O)Nc2cncc(C(N)=O)c2)C1 (single isomer, unassigned) [Compound 569] | > 1000 nM | > 500 nM | > 500 nM | > 500 nM | > 1000 nM | C (an IC50 ratio of less than 3 fold) | > 10000 nM |
| C[C@@H]1CC[C@@H](c2ccc(Cl)cc2)N(C(=O)C(=O)Nc2cncc(C(N)=O)c2)C1 (single isomer, unassigned) [Compound 570] | > 1000 nM | 50 to 500 nM | < 50 nM | 50 to 500 nM | < 100 nM | A (an IC50 ratio greater than or equal to 10 fold) | 1000 to 10000 nM |
| C[C@@H]1CC[C@@H](c2cc3cn[nH]c3cc2F)N(C(=O)C(=O)Nc2cncc(C(N)=O)c2)C1 (single isomer, unassigned) [Compound 571] | > 1000 nM | > 500 nM | > 500 nM | > 500 nM | > 1000 nM | C (an IC50 ratio of less than 3 fold) | > 10000 nM |
| Cc1cc([C@@H]2CC[C@@H](C)CN2C(=O)C(=O)Nc2cnc(N)c(C)c2)ccc1O (single isomer, unassigned) [Compound 572] | < 100 nM | < 50 nM | 50 to 500 nM | 50 to 500 nM | < 100 nM | A (an IC50 ratio greater than or equal to 10 fold) | < 1000 nM |
| Cc1cc(NC(=O)C(=O)N2C[C@@H](C)CC[C@@H]2c2cnc3[nH]ncc3c2)cnc1N (single isomer, unassigned) [Compound 573] | > 1000 nM | > 500 nM | > 500 nM | > 500 nM | > 1000 nM | C (an IC50 ratio of less than 3 fold) | > 10000 nM |
| C[C@H]1CC[C@H](c2cnc3[nH]ncc3c2)N(C(=O)C(=O)Nc2cncc(C(N)=O)c2)C1 (single isomer, unassigned) [Compound 574] | > 1000 nM | 50 to 500 nM | 50 to 500 nM | 50 to 500 nM | > 1000 nM | B (an IC50 ratio greater than or equal to 3 fold but lower than 10 fold) | > 10000 nM |
| Cc1cc(NC(=O)C(=O)N2C[C@@H](C)CC[C@@H]2c2ccc(C(F)(F)F)cc2)cnc1N (single isomer, unassigned) [Compound 575] | > 1000 nM | > 500 nM | > 500 nM | > 500 nM | > 1000 nM | C (an IC50 ratio of less than 3 fold) | > 10000 nM |
| CC[C@@H]1CC[C@@H](c2ccccc2)N(C(=O)C(=O)Nc2cncc(C(N)=O)c2)C1 (single isomer, unassigned) [Compound 576] | > 1000 nM | > 500 nM | > 500 nM | > 500 nM | > 1000 nM | C (an IC50 ratio of less than 3 fold) | > 10000 nM |
| C[C@@H]1CC[C@@H](c2ccccn2)N(C(=O)C(=O)Nc2cncc(C(N)=O)c2)C1 (single isomer, unassigned) [Compound 578] | > 1000 nM | > 500 nM | > 500 nM | > 500 nM | > 1000 nM | C (an IC50 ratio of less than 3 fold) | > 10000 nM |
| CCc1cc(NC(=O)C(=O)N2C[C@H](C)CC[C@H]2c2ccc3[nH]ncc3c2)cnc1N (single isomer, unassigned) [Compound 579] | > 1000 nM | > 500 nM | > 500 nM | > 500 nM | > 1000 nM | B (an IC50 ratio greater than or equal to 3 fold but lower than 10 fold) | > 10000 nM |
| Cc1cc(NC(=O)C(=O)N2C[C@H](C)CC[C@H]2c2ccc3c(c2)CNC3=O)cnc1N (single isomer, unassigned) [Compound 581] | 100 to 1000 nM | < 50 nM | 50 to 500 nM | 50 to 500 nM | < 100 nM | A (an IC50 ratio greater than or equal to 10 fold) | 1000 to 10000 nM |
| C[C@H]1CC[C@H](c2ccc3sccc3c2)N(C(=O)C(=O)Nc2cncc(C(N)=O)c2)C1 (single isomer, unassigned) [Compound 585] | 100 to 1000 nM | < 50 nM | < 50 nM | < 50 nM | < 100 nM | A (an IC50 ratio greater than or equal to 10 fold) | < 1000 nM |
| C[C@@H]1CC[C@@H](c2ccc3sccc3c2)N(C(=O)C(=O)Nc2cncc(C(N)=O)c2)C1 (single isomer, unassigned) [Compound 586] | > 1000 nM | > 500 nM | > 500 nM | > 500 nM | > 1000 nM | B (an IC50 ratio greater than or equal to 3 fold but lower than 10 fold) | > 10000 nM |
| CCc1cc(NC(=O)C(=O)N2C[C@@H](C)CC[C@@H]2c2ccc3[nH]ncc3c2)cnc1N (single isomer, unassigned) [Compound 589] | 100 to 1000 nM | < 50 nM | < 50 nM | < 50 nM | < 100 nM | A (an IC50 ratio greater than or equal to 10 fold) | < 1000 nM |
| C[C@H]1CC[C@H](c2ccccn2)N(C(=O)C(=O)Nc2cncc(C(N)=O)c2)C1 (single isomer, unassigned) [Compound 590] | > 1000 nM | < 50 nM | < 50 nM | 50 to 500 nM | < 100 nM | A (an IC50 ratio greater than or equal to 10 fold) | 1000 to 10000 nM |
| Cc1cc(NC(=O)C(=O)N2C[C@@H](C)CC[C@@H]2c2ccc3c(c2)CNC3=O)cnc1N (single isomer, unassigned) [Compound 591] | > 1000 nM | > 500 nM | > 500 nM | > 500 nM | > 1000 nM | C (an IC50 ratio of less than 3 fold) | > 10000 nM |
| Cc1cc(NC(=O)C(=O)N2C[C@H](C)CC[C@H]2c2ccncc2)cnc1N (single isomer, unassigned) [Compound 592] | 100 to 1000 nM | 50 to 500 nM | 50 to 500 nM | < 50 nM | < 100 nM | A (an IC50 ratio greater than or equal to 10 fold) | 1000 to 10000 nM |
